Measured values published in the NIST ThermoML archive (doi:10.1016/j.jct.2004.12.004).

Assay: mn = molality of the nth substance listed, in mol/kg
Settings: 350 kPa, Liquid, Extra sensitive DSC

OC[C@H]1O[C@@](CO)(O[C@H]2O[C@H](CO)[C@@H](O)[C@H](O)[C@H]2O)[C@@H](O)[C@@H]1O [D-sucrose] + O
Settings | apparent molar heat capacity [J/K/mol]
278.15 K, m1 = 0.01461 | 532.5
278.15 K, m1 = 0.03048 | 533.5
278.15 K, m1 = 0.06172 | 533.8
278.15 K, m1 = 0.1302 | 535.7
278.15 K, m1 = 0.2486 | 538.6
278.15 K, m1 = 0.4969 | 544.2
278.15 K, m1 = 0.746 | 548.9
278.15 K, m1 = 0.9972 | 554.2
278.15 K, m1 = 1.489 | 560.3
278.15 K, m1 = 1.99 | 566.8
278.15 K, m1 = 2.99 | 577.9
278.15 K, m1 = 3.995 | 587.9
283.15 K, m1 = 0.01461 | 567.4
283.15 K, m1 = 0.03048 | 567.3
283.15 K, m1 = 0.06172 | 568.9
283.15 K, m1 = 0.1302 | 569.8
283.15 K, m1 = 0.2486 | 572
283.15 K, m1 = 0.4969 | 575.9
283.15 K, m1 = 0.746 | 579.3
283.15 K, m1 = 0.9972 | 583.7
283.15 K, m1 = 1.489 | 587.9
283.15 K, m1 = 1.99 | 593.1
283.15 K, m1 = 2.99 | 601.8
283.15 K, m1 = 3.995 | 610
288.15 K, m1 = 0.01461 | 596.7
288.15 K, m1 = 0.03048 | 596.6
288.15 K, m1 = 0.06172 | 597.7
288.15 K, m1 = 0.1302 | 598.1
288.15 K, m1 = 0.2486 | 599.7
288.15 K, m1 = 0.4969 | 602.4
288.15 K, m1 = 0.746 | 604.7
288.15 K, m1 = 0.9972 | 608.3
288.15 K, m1 = 1.489 | 611
288.15 K, m1 = 1.99 | 614.9
288.15 K, m1 = 2.99 | 621.5
288.15 K, m1 = 3.995 | 628.2
293.15 K, m1 = 0.01461 | 622
293.15 K, m1 = 0.03048 | 621.8
293.15 K, m1 = 0.06172 | 622.6
293.15 K, m1 = 0.1302 | 622.7
293.15 K, m1 = 0.2486 | 623.7
293.15 K, m1 = 0.4969 | 625.6
293.15 K, m1 = 0.746 | 627.1
293.15 K, m1 = 0.9972 | 629.8
293.15 K, m1 = 1.489 | 631.4
293.15 K, m1 = 1.99 | 634.1
293.15 K, m1 = 2.99 | 639
293.15 K, m1 = 3.995 | 644.5
298.15 K, m1 = 0.01461 | 642.1
298.15 K, m1 = 0.03048 | 642.9
298.15 K, m1 = 0.06172 | 644
298.15 K, m1 = 0.1302 | 643.9
298.15 K, m1 = 0.2486 | 644.7
298.15 K, m1 = 0.4969 | 646
298.15 K, m1 = 0.746 | 646.9
298.15 K, m1 = 0.9972 | 649.1
298.15 K, m1 = 1.489 | 649.6
298.15 K, m1 = 1.99 | 651.6
298.15 K, m1 = 2.99 | 655.2
298.15 K, m1 = 3.995 | 659.4
303.15 K, m1 = 0.01461 | 660.7
303.15 K, m1 = 0.03048 | 662.1
303.15 K, m1 = 0.06172 | 663
303.15 K, m1 = 0.1302 | 663.2
303.15 K, m1 = 0.2486 | 663.8
303.15 K, m1 = 0.4969 | 664.5
303.15 K, m1 = 0.746 | 665.1
303.15 K, m1 = 0.9972 | 666.8
303.15 K, m1 = 1.489 | 666.5
303.15 K, m1 = 1.99 | 667.8
303.15 K, m1 = 2.99 | 670.4
303.15 K, m1 = 3.995 | 673.5
308.15 K, m1 = 0.01461 | 679
308.15 K, m1 = 0.03048 | 679.1
308.15 K, m1 = 0.06172 | 680.3
308.15 K, m1 = 0.1302 | 680.3
308.15 K, m1 = 0.2486 | 680.6
308.15 K, m1 = 0.4969 | 680.9
308.15 K, m1 = 0.746 | 681.1
308.15 K, m1 = 0.9972 | 682.4
308.15 K, m1 = 1.489 | 681.8
308.15 K, m1 = 1.99 | 682.4
308.15 K, m1 = 2.99 | 683.9
308.15 K, m1 = 3.995 | 686.3
313.15 K, m1 = 0.01461 | 695.3
313.15 K, m1 = 0.03048 | 695.1
313.15 K, m1 = 0.06172 | 696.3
313.15 K, m1 = 0.1302 | 696.2
313.15 K, m1 = 0.2486 | 696.3
313.15 K, m1 = 0.4969 | 696.3
313.15 K, m1 = 0.746 | 696.2
313.15 K, m1 = 0.9972 | 697.3
313.15 K, m1 = 1.489 | 696.3
313.15 K, m1 = 1.99 | 696.4
313.15 K, m1 = 2.99 | 697.1
313.15 K, m1 = 3.995 | 698.8
318.15 K, m1 = 0.01461 | 709.1
318.15 K, m1 = 0.03048 | 709.4
318.15 K, m1 = 0.06172 | 710.4
318.15 K, m1 = 0.1302 | 710.3
318.15 K, m1 = 0.2486 | 710.3
318.15 K, m1 = 0.4969 | 710.1
318.15 K, m1 = 0.746 | 709.8
318.15 K, m1 = 0.9972 | 710.5
318.15 K, m1 = 1.489 | 709.1
318.15 K, m1 = 1.99 | 709.1
318.15 K, m1 = 2.99 | 709.1
318.15 K, m1 = 3.995 | 710.2
323.15 K, m1 = 0.01461 | 722.3
323.15 K, m1 = 0.03048 | 722.4
323.15 K, m1 = 0.06172 | 723.4
323.15 K, m1 = 0.1302 | 723.1
323.15 K, m1 = 0.2486 | 723
323.15 K, m1 = 0.4969 | 722.6
323.15 K, m1 = 0.746 | 722
323.15 K, m1 = 0.9972 | 722.7
323.15 K, m1 = 1.489 | 721
323.15 K, m1 = 1.99 | 720.7
323.15 K, m1 = 2.99 | 720.3
323.15 K, m1 = 3.995 | 720.8
328.15 K, m1 = 0.01461 | 735.7
328.15 K, m1 = 0.03048 | 735.3
328.15 K, m1 = 0.06172 | 735.9
328.15 K, m1 = 0.1302 | 735.3
328.15 K, m1 = 0.2486 | 735.1
328.15 K, m1 = 0.4969 | 734.6
328.15 K, m1 = 0.746 | 733.9
328.15 K, m1 = 0.9972 | 734.3
328.15 K, m1 = 1.489 | 732.5
328.15 K, m1 = 1.99 | 731.9
328.15 K, m1 = 2.99 | 730.9
328.15 K, m1 = 3.995 | 731.1
333.15 K, m1 = 0.01461 | 746.9
333.15 K, m1 = 0.03048 | 746.6
333.15 K, m1 = 0.06172 | 747
333.15 K, m1 = 0.1302 | 746.5
333.15 K, m1 = 0.2486 | 746.2
333.15 K, m1 = 0.4969 | 745.4
333.15 K, m1 = 0.746 | 744.6
333.15 K, m1 = 0.9972 | 745
333.15 K, m1 = 1.489 | 742.9
333.15 K, m1 = 1.99 | 742.1
333.15 K, m1 = 2.99 | 740.7
333.15 K, m1 = 3.995 | 740.5
338.15 K, m1 = 0.01461 | 756.6
338.15 K, m1 = 0.03048 | 757.3
338.15 K, m1 = 0.06172 | 757.4
338.15 K, m1 = 0.1302 | 756.8
338.15 K, m1 = 0.2486 | 756.4
338.15 K, m1 = 0.4969 | 755.6
338.15 K, m1 = 0.746 | 754.7
338.15 K, m1 = 0.9972 | 754.9
338.15 K, m1 = 1.489 | 752.7
338.15 K, m1 = 1.99 | 751.7
338.15 K, m1 = 2.99 | 750
338.15 K, m1 = 3.995 | 749.3
343.15 K, m1 = 0.01461 | 765.9
343.15 K, m1 = 0.03048 | 766.2
343.15 K, m1 = 0.06172 | 766.8
343.15 K, m1 = 0.1302 | 766.3
343.15 K, m1 = 0.2486 | 766
343.15 K, m1 = 0.4969 | 765.2
343.15 K, m1 = 0.746 | 764.2
343.15 K, m1 = 0.9972 | 764.2
343.15 K, m1 = 1.489 | 762
343.15 K, m1 = 1.99 | 760.8
343.15 K, m1 = 2.99 | 759
343.15 K, m1 = 3.995 | 758
348.15 K, m1 = 0.01461 | 774.3
348.15 K, m1 = 0.03048 | 775.2
348.15 K, m1 = 0.06172 | 775.7
348.15 K, m1 = 0.1302 | 775.1
348.15 K, m1 = 0.2486 | 774.7
348.15 K, m1 = 0.4969 | 774
348.15 K, m1 = 0.746 | 772.8
348.15 K, m1 = 0.9972 | 772.7
348.15 K, m1 = 1.489 | 770.4
348.15 K, m1 = 1.99 | 769.1
348.15 K, m1 = 2.99 | 767
348.15 K, m1 = 3.995 | 765.8
353.15 K, m1 = 0.01461 | 781.7
353.15 K, m1 = 0.03048 | 783.6
353.15 K, m1 = 0.06172 | 784
353.15 K, m1 = 0.1302 | 783.3
353.15 K, m1 = 0.2486 | 783
353.15 K, m1 = 0.4969 | 782.2
353.15 K, m1 = 0.746 | 780.9
353.15 K, m1 = 0.9972 | 780.7
353.15 K, m1 = 1.489 | 778.3
353.15 K, m1 = 1.99 | 777
353.15 K, m1 = 2.99 | 774.6
353.15 K, m1 = 3.995 | 773.2
358.15 K, m1 = 0.01461 | 791
358.15 K, m1 = 0.03048 | 791.1
358.15 K, m1 = 0.06172 | 791.9
358.15 K, m1 = 0.1302 | 791.1
358.15 K, m1 = 0.2486 | 790.6
358.15 K, m1 = 0.4969 | 789.8
358.15 K, m1 = 0.746 | 788.4
358.15 K, m1 = 0.9972 | 788.2
358.15 K, m1 = 1.489 | 785.7
358.15 K, m1 = 1.99 | 784.3
358.15 K, m1 = 2.99 | 781.7
358.15 K, m1 = 3.995 | 780
363.15 K, m1 = 0.01461 | 797.3
363.15 K, m1 = 0.03048 | 797.3
363.15 K, m1 = 0.06172 | 798
363.15 K, m1 = 0.1302 | 797.4
363.15 K, m1 = 0.2486 | 797.1
363.15 K, m1 = 0.4969 | 796.6
363.15 K, m1 = 0.746 | 795.1
363.15 K, m1 = 0.9972 | 794.7
363.15 K, m1 = 1.489 | 792.3
363.15 K, m1 = 1.99 | 790.9
363.15 K, m1 = 2.99 | 788.1
363.15 K, m1 = 3.995 | 786.3
